Consider 1 substance from patent US20170087113A1, “METHODS FOR TREATING UREA CYCLE DISORDERS TO PREVENT HYPERAMMONEMIC CRISES BY CONTROLLING BLOOD AMMONIA LEVELS” (HORIZON THERAPEUTICS, LLC, priority 2014, published 2017).

In the assay the test system is UCD patients. Briefly: Occurrence of hyperammonemic crises (HAC): 12 months pre-enrollment on NaPBA versus 12-month GPB treatment (studies HPN-100-005, -007, -012). The assay is classed as in vivo, human. From the text:
Data from four short-term switchover (SO) studies and three 12-month safety extension (SE) studies in adult and pediatric UCD patients were included in the analyses; all have been previously described. […] Most patients completing these protocols plus additional patients (a total of 100 of whom 49 were pediatric) were enrolled into safety extension studies and received GPB for 12 months (Diaz 2013), (Mokhatarani 2013), (Berry 2014).
All protocols and informed consents were reviewed and approved by the Investigational Review Board of each participating institution prior to initiation. […] In all studies, patients received GPB three times daily (or more frequently in small children to match their prior NaPBA schedule) at a daily dose equivalent to their previously prescribed NaPBA dose. […] Fasting ammonia and glutamine levels were analyzed as a predictor of HACs during long-term treatment.
During the 12 month studies, blood samples for ammonia and glutamine analyses were collected monthly and information on HACs was recorded. […] Ammonia and glutamine concentrations were measured by an accredited hospital laboratory at each study site and ammonia values were normalized to a standard range of 9 to 35 μmol/L.
Data for 100 UCD subjects from three clinical trials (HPN-100-005, HPN-100-007, and HPN-100-012) were analyzed to evaluate the correlation between fasting ammonia levels and HAC (Table 1). Patients were treated for 12 months with GPB during the study. There was an almost equal split in the number of subjects who were adults (51%) and children (49%), defined as age<18 years at the time of enrollment. In this population, 30 patients had experienced a total of 54 HACs in the 12 months prior to the study and 19 patients experienced a total of 27 HACs during the study (Table 1). Baseline ammonia was defined as the subject's fasting ammonia level taken either at month zero or at the screening visit depending on which study the subject was enrolled in and whether the subject was enrolled in previous studies.

The mark [1] stands for this setting: all patients N=100, pre-study (NaPBA) or during study (GPB).
[2] abbreviates: study 005, N=17, pre-study (NaPBA) or during study (GPB).
[3] abbreviates: study 007, N=60, pre-study (NaPBA) or during study (GPB).
The mark [4] stands for this setting: study 012, N=23, pre-study (NaPBA) or during study (GPB).
The mark [5] stands for this setting: subjects ages 6 years or higher, total N=77, pre-study (NaPBA) or study (GPB).

sodium phenylbutyrate [NaPBA]: the “12-month incidence of HAC” value came out at 0.832 (adult (≧18 years)); 0.712 (female); 0.516 (male); 0.660 (non-white); 0.338 (pediatric (<18 years)); 0.564 (white). Further, the “Proportion of patients who experienced an HAC” value stood at 17.7% (adult (≧18 years)); 30.0% under setting [1]; 23.9% (female); 42.4% (male); 36.8% (non-white); 42.9% (pediatric (<18 years)). The “Proportion of patients who experienced an HAC” value (white) was determined as 28.4%. In addition, the “# of HA events (total no. of HAC)” value (all patients N=100, 12 months pre-study (NaPBA) or during study (GPB)) came out at 54. The “N with ≧1 HA events (number of patients with HAC)” value under setting [1] was determined as 30. The “# of HA events” value came to 8 under setting [2], 17 under setting [3] and 29 under setting [4]. In addition, the “N with ≧1 HA events” value was 5 under setting [2], 10 under setting [3] and 15 under setting [4]. The “# of HACs” value under setting [5] is given as 25. For the same substance, the “Subjects with 1 or more HACs” value under setting [5] is 15.
